Patent US20050233313A1, “Methods and reagents for identifying inhibitors of viral protease activity” (priority 2002, published 2005)

These substances were tested on β-galactosidase substrate with HIV protease cleavage site (assay: cleavage of a β-galactosidase substrate by processed PR expressed from pMono in E. coli, Western blot). Details: single alanine substitutions in processed monomeric PR; full-length β-galactosidase cleavage, average of two or more inductions.
Assay type: cell-based
Excerpt: Plasmid pMono expresses wild-type or mutated monomeric protease from the tac promoter (Amann et al. (1983) Gene 25:167-178) in Escherichia coli and was derived from plasmid P1+IQ (Baum et al. (1990) Proc. Natl. Acad. Sci. USA 87:10023-10027). Protease sequences in P1+1Q were replaced by a linker of 5′ XhoI-XbaI-SalI-PstI 3′ to produce p1CVx. Wild-type or mutated protease sequences were obtained from pET-PR by PCR with primers 5′Xho (AATATA-CTCGAG-[…], SEQ ID NO: 1) and 3′Xba (ATAAAT-TCTAGA-[…], SEQ ID NO: 2) and were inserted into p1CVx to produce pMono. The phagemid pET-PR contains the 99-residue coding domain of the monomeric protease (HXB2 isolate [Ratner et al. (1987) AIDS Res. Hum. Retrovir. 3:57-69]) inserted into the NdeI-BamHI sites of pET24a (Novagen). The Kunkel method using single-stranded templates of pET-PR substituted with uracil was employed for site-directed mutagenesis (Bebenek and Kunkel (1989) Nucleic Acids Res. 17:5408, Kunkel et al. (1991) Methods Enzymol204:125-139). Mutations were confirmed by DNA sequencing prior to transfer of the protease sequences into p1CVx.
Uninduced mid-log-phase (optical density at 600 nm=0.5) cultures of lac-E. coli strain MC1061 carrying pMono were grown in yeast-tryptone medium to produce samples for Western blot analysis. Cells were pelleted, resuspended in 400 μl of sodium dodecyl sulfate (SDS)-polyacrylamide gel electrophoresis (PAGE) sample buffer (Pettit et al. (1991) J. Biol. Chem. 266:14539-14547) (optical density at 600 nm=˜0.5), and heated to 95° C. for 4 min. SDS-PAGE was performed on Tris-glycine gels (7.5% polyacrylamide) (Laemmli (1970) Nature […]). Separated proteins were bound to nitrocellulose by electrotransfer, blocked for 1 h with 3% bovine serum albumin in Tris-buffered saline-0.1% Tween 20, and probed with anti-β-galactosidase monoclonal antibody (Boehringer) at a 1:5,000 dilution. Following multiple washes in Tris-buffered saline-0.1% Tween 20, β-galactosidase was detected with the ECL Plus system followed by autoradiography according to the instructions of the manufacturer (Amersham Pharmacia). The extent of β-galactosidase cleavage was determined by densitometric measurement on a Molecular Dynamics Storm model 800 Phosphorlmager. For scanning, the Phosphorlmager was set in the blue fluorescence and chemifluorescence mode with a photomultiplier tube voltage of 700 V. The final value for percent cleavage of the β-galactosidase substrate was determined by taking the average of two or more independent inductions.
For these studies, we modified an E. coli expression system developed as described in Baum et al. (1990) Proc. Natl. Acad. Sci. USA 87:10023-10027. The vector (pMono) expresses HIV protease and the β-galactosidase gene. A cleavage cassette consisting of a decapeptide corresponding to an HIV protease cleavage site was inserted into the β-galactosidase open reading frame. In this system, enzyme activity may be assessed via Western blotting as the percent cleavage of full-length β-galactosidase.

Row | Substance | % Cleavage
1 | D25A: processed HIV-1 protease with replacement of the catalytic aspartate, negative control | 0%
2 | F99A: processed HIV-1 protease with single alanine substitution of dimer interface residue Phe 99 | 0%
3 | L97A: processed HIV-1 protease with single alanine substitution of dimer interface residue Leu 97 | 0%
4 | N98A: processed HIV-1 protease with single alanine substitution of dimer interface residue Asn 98 | 68%
5 | P1A: processed HIV-1 protease with single alanine substitution of dimer interface residue Pro 1 | 92%
6 | Q2A: processed HIV-1 protease with single alanine substitution of dimer interface residue Gln 2 | 96%
7 | T4A: processed HIV-1 protease with single alanine substitution of dimer interface residue Thr 4 | 96%
8 | T96A: processed HIV-1 protease with single alanine substitution of dimer interface residue Thr 96 | 14%
9 | Wild type: wild-type mature 99-residue monomeric HIV-1 protease (HXB2) expressed from pMono | 96%
